Experimental data taken from paper PMC8769072, “Proteome‐scale mapping of binding sites in the unstructured regions of the human proteome” (Molecular Systems Biology, 2022).

Test system: immobilized GST-tagged bait protein domains
Assay: ProP-PD phage selections (HD2 P8, sublibraries, HD2 P3, HD1 P8) with NGS and confidence level
Assay type: binding, human
Settings: for HD count proportions: mean normalised NGS counts; for HD mean counts: mean raw NGS counts, all selections; for p3_HD2 confidence / p3_HD2 mean counts / p3_HD2 count proportions: HD2 P3 library; for p3_HD2 confidence: confidence level (4 = High, 2-3 = Medium, 1 = Low); for p3_HD2 mean counts: mean NGS counts over replicate selections; for p3_HD2 count proportions: mean proportion of NGS counts
[1] = bait AP2B1_adaptin__P63010_700_937, library HD
[2] = bait MAP1LC3B_ATG8 (Q9GZQ8 2-119), HD2 library, benchmark motif instance recovered in the ProP-PD selection (TRUE/FALSE)
[3] = library HD2, bait EPS15_EH__P42566_121_215, whether the validated benchmark motif instance was recovered in the ProP-PD selection (TRUE/FALSE)
[4] = HD2 library, bait SUMO1_SUMO__P63165_1_101, known motif instance of the benchmarking set found (TRUE) or not found (FALSE) among selected peptides
[5] = bait KPNA4_Arm (O00629 68-487), HD2 library, benchmark motif instance recovered in the ProP-PD selection (TRUE/FALSE)
[6] = library HD2, bait YES1_SH3__P07947_90_152, validated benchmark motif instance, in_library_check TRUE, TRUE/FALSE = instance recovered in ProP-PD selection
[7] = bait ANKRA2_Ank__Q9H9E1_142_313, HD2 P8 selection, confidence level -4 to 4: 4 = High, 3 or 2 = Medium, 1 = Low, 0 = Filtered/Noise
[8] = bait MDM2_p53-binding-domain (Q00987 17-125), HD2 library, benchmark motif instance recovered in the ProP-PD selection (TRUE/FALSE)
[9] = bait PEX14_Pex14__O75381_16_84, HD2 library, whether the validated benchmark motif instance was recovered in the ProP-PD selection (TRUE/FALSE)
[10] = bait PABP-B_PABP__P11940_544_623, HD2 library, whether the validated benchmark motif instance was recovered in the ProP-PD selection (TRUE/FALSE)
[11] = library HD2, bait Keap1_KELCH__Q14145_321_609, whether the validated benchmark motif instance was recovered in the ProP-PD selection (TRUE/FALSE)
[12] = bait MDM2_p53-binding-domain (Q00987 17-125), HD2 library, confidence level (1-4) of best matching peptide
[13] = bait MDM2_p53-binding-domain (Q00987 17-125), HD2 library, specificity score of best matching peptide

For DVDYFGQQFDQISNRT, which HD confidence [1] is on record?
Its HD confidence is 2.

And the HD count proportions [1]?
The HD count proportions was 0.1904.

What about the HD mean counts [1] of the same substance?
The HD mean counts was 883.25.

With DWSNLVDAAKAYEVQR as the substance, how does the HD2-1mM_CaCl confidence (bait CALM1 EF-hand (P0DP23, 2-149), HD2 library selection with 1mM_CaCl, confidence level (4 = High, 2 or 3 = Medium, 1 = Low)) read?
Its HD2-1mM_CaCl confidence is 2.

And the HD2 confidence (bait CALM1 EF-hand (P0DP23, 2-149), HD2 library selection, confidence level (4 = High, 2 or 3 = Medium, 1 = Low))?
The HD2 confidence was 3.

Which motif_found (bait MAD2L1_HORMA (Q13257 1-205), HD2 library, benchmark motif instance recovered in the ProP-PD selection (TRUE/FALSE)) does the source give for DYDQSRTKVLHMSLNPTSVARQR here?
The motif_found was “FALSE”.

DYESDDDSYEVLDLTEY was tested. Which motif_found [2] did it give?
The motif_found was “FALSE”.

Which motif_found [3] does the source give for DYFDYESTNPFTAKFRASN here?
Its motif_found is “FALSE”.

With EASKKKVDVIDLTIESSSDE as the substance, how does the motif_found [4] read?
Its motif_found is “FALSE”.

Which motif_found (HD2 library, bait TSG101_UEV__Q99816_1_145, known motif instance of the benchmarking set found (TRUE) or not found (FALSE) among selected peptides) does the source give for EATNTTSEPSAPSQDLLDLS here?
The motif_found was “FALSE”.

How did the motif_found [5] turn out when ECISSAMPKKKKPSRLKGDNE was run?
The motif_found was “FALSE”.

Which motif_found (HD2 library, bait MAP1LC3A_ATG8__Q9H492_2_121, benchmark motif instance, in_library_check FALSE, in_library_coverage 0) does the source give for EDSPLLEDWDIISPKDVIG [TBC1D25 135-139] here?
The motif_found was “FALSE”.

And the motif_found (HD2 library, bait MAP1LC3B_ATG8__Q9GZQ8_2_119, benchmark motif instance, in_library_check FALSE, in_library_coverage 0)?
The motif_found was “FALSE”.

With EEARKSPTPSAPVPLTEPAA as the substance, how does the motif_found (library HD2, bait TSG101_UEV__Q99816_1_145, validated benchmark motif instance, in_library_check TRUE, TRUE/FALSE = instance recovered in ProP-PD selection) read?
Its motif_found is “FALSE”.

For EEDQILKKPLPPEPAAAPVST, which motif_found [6] is on record?
The motif_found was “FALSE”.

For EEEEAVAGNPFIQPDSPAP, which motif_found [3] is on record?
The motif_found was “FALSE”.

Which motif_found [3] does the source give for EEEELDESNPFYEPKSTPP here?
The motif_found was “FALSE”.

EEEMEVPVLPKISLPI was tested. Which HD2 confidence [7] did it give?
Its HD2 confidence is 2.

Which results are given for EETFQLSRWTPFIKDI?
HD confidence [1]: 3; HD count proportions [1]: 0.004596; HD mean counts [1]: 9.0

How did the motif_found [8] turn out when EFLSPEVFQHIWDFLEQPICSV was run?
Its motif_found is “FALSE”.

For EGALGGAFPPPPPPIEESF, which motif_found (library HD2, bait VASP_EVH1__P50552_1_114, validated benchmark motif instance, in_library_check TRUE, TRUE/FALSE = instance recovered in ProP-PD selection) is on record?
The motif_found was “FALSE”.

With EGTATDRWYDEYHPEEDLQ as the substance, how does the motif_found [9] read?
The motif_found was “FALSE”.

How did the HD2 confidence [7] turn out when EKPVPTLPQFTMGPNV was run?
The HD2 confidence was 3.

ELDKEIKNSFNPEAQVFMPISDPASSV was tested. Which motif_found [10] did it give?
The motif_found was “FALSE”.

With “ELDTNDDDIVFEDFARQRLKGMKDD,DDDIVFEDFARQRL [ARRB1]” as the substance, how does the motif_found (bait AP2B1_adaptin__P63010_700_937, library HD2, benchmarking set of validated motif instances, TRUE = motif instance recovered in the ProP-PD selection) read?
The motif_found was “FALSE”.

How did the motif_found [5] turn out when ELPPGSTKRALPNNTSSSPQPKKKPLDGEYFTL was run?
The motif_found was “FALSE”.

How did the confidence (library HD, bait ANKRA2_Ank__Q9H9E1_142_313, ProP-PD peptides with disease-related mutations) turn out when ELSMFQLPTLNFSPEQ was run?
Its confidence is 3.

Which results are given for EPCGQRDSPPDYHLLF?
p3_HD2 confidence (bait NEDD4_WW_4_P46934_890_928): 4; p3_HD2 mean counts (bait NEDD4_WW_4_P46934_890_928): 3356; p3_HD2 count proportions (bait NEDD4_WW_4_P46934_890_928): 0.1373

How did the motif_found [5] turn out when EPSKPAATRKRRWSAPESRK was run?
The motif_found was “FALSE”.

How did the HD confidence [1] turn out when EPSTTPNNWADFSSTW was run?
Its HD confidence is 3.

What about the HD2 confidence (bait AP2B1_adaptin__P63010_700_937, library HD2 P8) of the same substance?
Its HD2 confidence is 4.

And the HD2_endomembrane confidence (bait AP2B1_adaptin__P63010_700_937, library HD2 P8 endomembrane)?
The HD2_endomembrane confidence was 4.

What about the HD count proportions [1] of the same substance?
The HD count proportions was 0.0006275.

What about the HD mean counts [1] of the same substance?
Its HD mean counts is 1.5.

With EQVASKGTGLNPNAKVWQEIAPGNTDA as the substance, how does the motif_found [10] read?
The motif_found was “FALSE”.

How did the motif_found [4] turn out when ERSGVIREVMIIEVSSSEEE was run?
Its motif_found is “FALSE”.

Which motif_found [11] does the source give for ESAKAADDPENGERESHTPV here?
The motif_found was “FALSE”.

Which motif_found (library HD2, bait USP7_MATH-TRAF__Q93009_53_206, validated benchmark motif instance, in_library_check TRUE, TRUE/FALSE = instance recovered in ProP-PD selection) does the source give for ESEDYSQPSTSSSIIYSSQ here?
The motif_found was “FALSE”.

Which best_specificity (bait AP2B1_adaptin__P63010_700_937, library HD2, best matching peptide) does the source give for ESFGGGFADFSTLSKV here?
The best_specificity was 1.

And the best_confidence (bait AP2B1_adaptin__P63010_700_937, library HD2, confidence level of best matching peptide (4 = High, 2 or 3 = Medium, 1 = Low))?
The best_confidence was 3.

ESGSLEDDWDFLPPKKIKD was tested. Which motif_found (bait MAP1LC3A_ATG8 (Q9H492 2-121), HD2 library, benchmark motif instance recovered in the ProP-PD selection (TRUE/FALSE)) did it give?
The motif_found was “FALSE”.

And the motif_found [2]?
Its motif_found is “FALSE”.

Which HD2 confidence (bait ANKRA2_Ank__Q9H9E1_142_313, library HD2 P8) does the source give for ESSNLCMPDLPHLLAF here?
Its HD2 confidence is 4.

Which results are given for ETPGDGKPPALPPKQS?
p3_HD2 confidence (bait CRK_SH3_1_P46108_124_198): 3; p3_HD2 mean counts (bait CRK_SH3_1_P46108_124_198): 437.0; p3_HD2 count proportions (bait CRK_SH3_1_P46108_124_198): 0.01474

With ETRICKIYDSPCLPEAEAMFA as the substance, how does the motif_found [6] read?
Its motif_found is “FALSE”.

Which results are given for FADFSTLSKVNNEDPF?
HD confidence [1]: 3; HD count proportions [1]: 0.0005532; HD mean counts [1]: 1.25

With FASKPPTTNPFL------- as the substance, how does the motif_found [3] read?
Its motif_found is “FALSE”.

With FASQEKFFQELFDSELASQ as the substance, how does the motif_found [9] read?
Its motif_found is “FALSE”.

For FATLPRKKNPFEESSETWD, which motif_found [3] is on record?
Its motif_found is “FALSE”.

“FDIDMDAPETERAAVAIQSQFRKFQKKKAGSQS,DMDAPETERAAVAIQSQFRKFQKKKAGSQS---- [PCP4]” was tested. Which motif_found (bait CALM1_EF-hand__P0DP23_2_149, library HD2, benchmarking set of validated motif instances, TRUE = motif instance recovered in the ProP-PD selection) did it give?
Its motif_found is “FALSE”.

Which results are given for FEAQWAALEGKATVEK?
motif_found [8]: TRUE; best_confidence [12]: 3; best_specificity [13]: 1

For FEAQWAALENKSKQRT, which motif_found [8] is on record?
The motif_found was “TRUE”.

And the best_confidence [12]?
The best_confidence was 3.

And the best_specificity [13]?
The best_specificity was 0.97.

For FFAQLQLDEETGEFLPIQPA, which motif_found [11] is on record?
The motif_found was “FALSE”.

For FGPPPQVPSRPNRAPPGVPS [DNM1], which motif_found (bait CRK_SH3_1_P46108_124_198, library HD2, benchmarking set of validated motif instances, TRUE = motif instance recovered in the ProP-PD selection) is on record?
The motif_found was “FALSE”.

Which motif_found [3] does the source give for FITGLTRTNPFSDRTAAPG here?
The motif_found was “FALSE”.

Which motif_found (library HD2, bait KLC1_TPR__Q07866_203_497, whether the validated benchmark motif instance was recovered in the ProP-PD selection (TRUE/FALSE)) does the source give for FLGNGNELEWEDDTPVATAKNMPG here?
The motif_found was “FALSE”.

For “FLKLKNAATLIQRHWRGHNCRKNYGLMRLGF [MYO7A 771-787]”, which motif_found (HD2 library, bait CALM1_EF-hand__P0DP23_2_149, benchmark motif instance, in_library_check FALSE, in_library_coverage 0) is on record?
Its motif_found is “FALSE”.
